Experimental findings from US11136320B2, “Fused ring derivative used as FGFR4 inhibitor” (JACOBIO PHARMACEUTICALS CO., LTD., priority 2019, dated 2021) are described below.

For data set [1], the target named is T1, FGFR4 kinase (Homo sapiens (Human), UniProt P22455). The data set can be described thus: biochemical.
Data set [2] can be described thus: PK analysis of rats. In kind it is in vivo. The following applies: SD rats, p.o. (10 mg/kg); for AUC(0-t) / Cmax: rat, plasma, po; for AUC(0-t): read-out: Curve area AUC0-24 h; for Cmax: read-out: Drug concentration in blood Cmax. The protocol:
In the present invention, the pharmacokinetics experiment of the compounds in rats was performed using the SD rats (Vitolihua).
(1) Mode of administration: single gavage administration and intravenous injection administration.
(2) Dosage: 10 mg/kg in the gavage administration, 3 mg/kg in the intravenous injection administration.
Gavage administration: before administration, 15 min, 30 min, 1 h, 2 h, 4 h, 6 h, 8 h, 24 h; […]
(4) Sample processing: 200 μL of orbital blood was collected at each sampling time point. After anticoagulation with heparin, the blood was centrifuged at 5500 rpm for 10 min, and 60 μL of the supernatant was taken and put into the refrigerator at −80° C. for waiting for testing.
Samples obtained after administration of Compound 1 were tested using 4000 LC-MS/MS analyzer, wherein, the chromatographic separation conditions for testing were:
Samples obtained after administration of Compound 7 were tested using 4000 LC-MS/MS analyzer, wherein, the chromatographic separation conditions for testing were:
Samples obtained after administration of Compound 16 were tested using 4000 LC-MS/MS analyzer, wherein, the chromatographic separation conditions for testing were: […]

The target in data set [3] is T1, FGFR4 kinase.
The test system of data set [4] is Hepatoma cell Hep3B (high expression of FGFR4 and FGF19). The data set can be described thus: Hepatoma cell proliferation inhibition experiment (MTS method). In kind it is cell-based. To be noted: for IC50: Homo sapiens, Hep3B, 120 h incubation, read-out: Hep3B(IC50 μM). The text has this: In this experiment, the MTS method was used to test the inhibitory effect of the compounds on the proliferation of Hepatoma cell Hep3B (high expression of FGFR4 and FGF19), and the half inhibitory concentration IC50 of the compounds to Hep3B was obtained. The Hep3B cell line was purchased from ATCC, and the complete culture medium of the Hep3B cell line was MEM+10% FBS+1% PS. MEM cell culture medium, fetal bovine serum, and trypsin were purchased from Gibco, cell culture flasks were purchased from Greiner, and disposable Cell Counting Plate and Taittinger Blue Solution were purchased from Bio-Rad.
(1) 100 μl Hepatoma cell Hep3B suspension was seeded in a 96-well cell culture plate, and the density of each well was 2.0×10^4 cells/ml.
(3) A mixture of MTS (3-(4,5-dimethylthiazol-2-yl)-5-(3-carboxymethoxyphenyl)-2-(4-sulfophenyl)-2H-tetrazolium)/PMS (phenazine methosulfate) was added into each well for coloration, and MTS/PMS in the mixture was at a ratio of 20:1 (ml:ml). 30 μl of the mixture was added into each well of the culture plate above mentioned in step (2), then the culture plate was incubated for 3 h in the incubator.
(5) The inhibition rate was calculated by the […];
(6) According to the inhibition rate of the different concentrations, the IC50 values of the compounds were obtained by curve fitting.
A general note: Tetrazolium assays rely on reduction of a dye to a coloured formazan, in cell work by metabolically active cells.

A short description of data set [5]: PK/PD of NOD-SCID mouse (drug concentration in blood and in tumors). In kind it is in vivo. To be noted: NOD-SCID, mouse, po, 50 mg/kg, p.o. (50 mg/kg); for AUC(0-t): read-out: AUC0-6 h; for concentration at 4 h / concentration at 6 h: tumor. The protocol: This experiment conducted when the pharmacological experiment in vivo was performed by gavage administration, wherein, the blood samples and tumor samples were taken at different time points to detect drug concentration in blood and drug concentrations in tumors.
(1) Mode of administration: gavage administration;
(2) Dosage: 50 mg/kg in the gavage administration;
Three mice were sampled at each sampling point;
(4) Blood sample collection: 200 μL of orbital blood was collected at sampling time point for each blood sample. After anticoagulation with heparin, the blood was centrifuged at 5500 rpm for 10 mins. 60 μL of the supernatant was taken and put it into the refrigerator at −80° C. for waiting for testing.
Tumour sample collection: 200-300 mg of each tumor tissue was taken. The tumor weight was marked, quickly freezed in liquid nitrogen and placed into a refrigerator at −80° C. for waiting for testing.
Tumour sample processing: pure water was added into the tumor sample according to a ratio of […] between the weight of the tumor sample and the volume of pure water and then it was homogenized. The homogenate was stored at −90° C. to −60° C. until the sample was analyzed. After 5 μL of acetonitrile/water (v/v=1:1) was added into 50 μL of tumor sample homogenate, 200 μL of acetonitrile (containing Dexamethasone 100 ng/ml as internal standard, or containing Verapamil 2 ng/ml as internal standard) was added. After protein precipitation, the resulting mixture was vortexed for 2 mins at 4° C. with 4600 g, and then centrifuged for 15 mins to obtain the supernatant. 100 μL of the supernatant was taken and added into 200 μL of deionized water. 5500 LC/MS/MS analyser was used for sample injection and analysis, after vortexing for homogeneity. The conditions for chromatographic separation and mass spectrometric analysis were as follows: […]

For data set [6], the system named is Hep3B. The experiment in a line: Pharmacodynamic in vivo, Hep3B model tumor growth inhibition. Set-up: species or system NOD-SCID mice. To be noted: 60 mg/kg QD, gavage. An excerpt:
The Hep3B cell line was purchased from ATCC; MEM cell culture medium, fetal bovine serum, and trypsin were purchased from Gibco; cell culture flasks were purchased from Greiner; and disposable Cell Counting Plate and taittinger Blue Solution Purchased from Bio-Rad. The disposable sterile syringe was purchased from Changzhou Jinlong Medical Plastic Instrument Co., Ltd, eye surgical scissors and eye surgical forceps were purchased from Shanghai Medical Instrument (Group) Co., Ltd. Surgical Instrument Factory, and 6-8 week old female NOD-SCID mice were purchased from Vitalivar.
a. One strain of Hep3B cells was taken out from the cell bank and MEM medium (MEM+10% FBS+1% PS) was used to recover the cells. The resuscitated cells were placed in a cell culture flask (the wall the flask was marked with the cell type, date, cultivator's name), and the cell culture flask was placed in a CO2 incubator (the temperature of the incubator was 37° C. and the CO2 concentration of the incubator was 5%);
b. When the cells covered about 90% of the bottom of the culture flask, passage was conducted. the cells were continued to cultivate in a CO2 incubator after passage. The above process was repeated until the number of the cell satisfied the requirements of pharmacodynamic in vivo;
c. The cultured cells were collected and counted using a BIO-Rad TC20 cell counter. According to the counting results, the cultured cells were resuspended with PBS and matrix gel (1:1) to obtain a cell suspension (density 5×10^7/ml), and the cell suspension was placed in an ice box for later use.
a. The cells were mixed well before seeding, and 0.5 ml of cell suspension was taken with a 1 ml syringe and bubbles in the cell suspension were removed. The syringe with the cell suspension was place on an ice pack for later use.
b. The NOD-SCID mice were set with the left hand, and the skin on the right back of the mice was disinfected with 75% alcohol. The inoculation was beginning after 30 seconds.
c. During inoculation, 1 mL syringe was on the right hand, and the cell suspension of Hep3B was inoculated subcutaneously into the right shoulder of the right back of the mouse at 0.1 mL/mouse. At inoculation interval, the syringe was placed on an ice pack and the mice were inoculated sequentially.
d. According to the tumor growth, the tumor was measured and the tumor size was calculated on the 12-15 days after inoculation.
Tumor volume calculation: tumor volume (mm^3)=length (mm)×width (mm)×width (mm)/2
e. When the tumors grew to an average volume of 100-150 mm^3, the mice were randomly divided into two groups according to tumor size and the weight of the mouse. […]
f. […] Tumors were measured and the mice were weighed twice a week after administration. […]

T1 sequence (P22455 22-802): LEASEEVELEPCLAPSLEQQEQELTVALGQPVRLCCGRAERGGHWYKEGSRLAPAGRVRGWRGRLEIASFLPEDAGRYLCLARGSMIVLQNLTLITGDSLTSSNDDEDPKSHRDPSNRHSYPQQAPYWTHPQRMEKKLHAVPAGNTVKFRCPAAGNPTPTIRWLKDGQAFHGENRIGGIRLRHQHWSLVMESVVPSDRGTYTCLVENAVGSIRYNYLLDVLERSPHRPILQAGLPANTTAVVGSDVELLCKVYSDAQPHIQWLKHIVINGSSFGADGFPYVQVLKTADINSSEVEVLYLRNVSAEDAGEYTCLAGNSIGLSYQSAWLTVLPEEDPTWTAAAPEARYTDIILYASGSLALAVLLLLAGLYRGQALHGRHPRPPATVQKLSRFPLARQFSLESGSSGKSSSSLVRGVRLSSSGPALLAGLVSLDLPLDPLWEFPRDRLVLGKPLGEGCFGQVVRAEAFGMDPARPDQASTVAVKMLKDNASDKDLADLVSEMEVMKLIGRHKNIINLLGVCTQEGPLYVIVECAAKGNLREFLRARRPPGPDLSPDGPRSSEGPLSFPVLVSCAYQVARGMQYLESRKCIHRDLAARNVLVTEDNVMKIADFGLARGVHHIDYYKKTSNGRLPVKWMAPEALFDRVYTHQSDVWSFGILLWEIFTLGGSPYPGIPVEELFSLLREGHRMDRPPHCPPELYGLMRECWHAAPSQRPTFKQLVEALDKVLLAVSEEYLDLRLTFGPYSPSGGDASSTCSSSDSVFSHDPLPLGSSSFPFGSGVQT

The IC50 is the point on the concentration scale where inhibition reaches its midpoint. For the compound `CN1CCN(Cc2cc3c(nc2C=O)N(C(=O)Nc2cc(NC4CCSC4)c(C#N)cn2)CCC3)C(=O)C1` (centres unmarked) [Compound 5, N-(5-cyano-4-((tetrahydrothiophene-3-yl)amino)pyridin-2-yl)-7-formyl-6-((4-methyl-2-oxopiperazin-1-yl)methyl)-3,4-dihydro-1,8-naphthyridine-1 (2H)-carboxamide], the IC50 in data set [1] amounted to 2 nM. For the same compound, in data set [2], the “exposure amount AUC0-24 h and maximum drug concentration in blood Cmax compared with the reference compound” value is “significantly higher than the reference compound”; the AUC(0-t) was 6730 ng·h/mL; the Cmax turned out to be 1400 ng/mL. Besides, in data set [3], the “inhibitory effect on FGFR4 compared with the reference compound” value is recorded as “better inhibitory effect on FGFR4 than the reference compound”.
On to `CSC[C@@H](C)Nc1cc(NC(=O)N2CCCc3cc(CN4CCCC4=O)c(C=O)nc32)ncc1C#N` [Compound 7, (R)—N-(5-cyano-4-((1-(methylthio)propan-2-yl)amino)pyridin-2-yl)-7-formyl-6-((2-oxopyrrolidine-1-yl)methyl)-3,4-dihydro-1,8-naphthyridine-1 (2H)-carboxamide], for which, in data set [4], the “inhibitory effect on Hepatoma cell Hep3B compared with the reference compound” value is recorded as “better inhibitory effect” and the IC50 stood at 0.011 µM. Further, the IC50 in data set [1] was found to be 1.5 nM. For the same compound, in data set [2], the “exposure amount AUC0-24 h and maximum drug concentration in blood Cmax compared with the reference compound” value is reported as “significantly higher than the reference compound”; the AUC(0-t) worked out at 2850 ng·h/mL; the Cmax amounted to 736 ng/mL. Moreover, the “inhibitory effect on FGFR4 compared with the reference compound” value in data set [3] was “better inhibitory effect on FGFR4 than the reference compound”.
Consider `CN1CCN(Cc2cc3c(nc2C=O)N(C(=O)Nc2cc(NCc4nccs4)c(C#N)cn2)CCC3)C(=O)C1` [Compound 56, N-(5-cyano-4-((thiazol-2-yl-methyl)amino)pyridin-2-yl)-7-formyl-6-((4-methyl-2-oxopiperazin-1-yl)methyl)-3,4-dihydro-1,8-naphthyridine-1(2H)-carboxamide], for which, in data set [4], the “inhibitory effect on Hepatoma cell Hep3B compared with the reference compound” value was “better inhibitory effect” and the 50% inhibitory concentration (IC50) turned out to be 0.013 µM. In data set [1], this compound registered an IC50 of 1.6 nM. Besides, in data set [2], the “exposure amount AUC0-24 h and maximum drug concentration in blood Cmax compared with the reference compound” value is recorded as “significantly higher than the reference compound”; the AUC(0-t) came out at 2010 ng·h/mL; the Cmax was found to be 548 ng/mL. For the same compound, the “inhibitory effect on FGFR4 compared with the reference compound” value in data set [3] is “better inhibitory effect on FGFR4 than the reference compound”.
One may read the AUC(0-inf) as total exposure, with the tail of the curve extrapolated. Lower therefore signals low exposure. As usually defined, the Tmax is the time at which the peak concentration occurs. A word on the half-life: it is how long it takes for the measured level to halve. Regarding `COCCNc1cc(NC(=O)N2CCCc3cc(CN4CCN(C)CC4=O)c(C=O)nc32)ncc1C#N` [Reference compound, roblitinib, reference compound], in data set [5] (plasma, Hep3B model), the total exposure AUC(0-inf) is 29100 ng·h/mL, the Cmax is 6200 ng/mL, the Tmax was found to be 1 h and the half-life was 3.13 h. The AUC(0-t) in data set [5] (plasma, Hep3B model) is 20200 ng·h/mL. In data set [5] (plasma, SNU878 model), the Cmax came to 5430 ng/mL, the Tmax was found to be 4 h and the AUC(0-t) worked out at 20400 ng·h/mL. In data set [5] (Hep3B model), this compound had a concentration at 4 h of 64.4 ng/g and a concentration at 6 h of 44.1 ng/g. In data set [5] (SNU878 model), this compound returned a concentration at 4 h of 3560 ng/g and a concentration at 6 h of 1030 ng/g. Further, the 50% inhibitory concentration (IC50) in data set [4] stood at 0.024 µM. Also, in data set [2], the AUC(0-t) was determined as 1590 ng·h/mL and the Cmax came out at 350 ng/mL. For the same compound, the TGI % in data set [6] is listed as 97.7%.
